Values of other authors, collected in patent US20180153879A1, “Solid Dispersion Comprising μ-Opioid Antagonists” (Sandoz AG, priority 2016, published 2018).

Details: free base form, exposure to air

In the case of `C=CCN1CC[C@]23c4c5ccc(O)c4O[C@H]2[C@@H](OCCOCCOCCOCCOCCOCCOCCOC)CC[C@@]3(O)[C@H]1C5` [naloxegol, (5α,6α)-17-allyl-6-(2,5,8,11,14,17,20-heptaoxadocosan-22-yloxy)-4,5-epoxymorphinan-3,14-diol], the oxidative stability is listed as “can undergo oxidative degradation upon exposure to air”.
